The subject of one test is complement. The test is described as follows: Guinea Pig Intraperitoneal Test (GPIP): serum complement activity after i.p. dosing. It is filed as in vivo. The note with it: 200 mg/kg i.p.; for In vivo Activity Guinea Pigs Intraperitoneal % Lowering, 30 minutes: blood 30 minutes after injection; for In vivo Activity Guinea Pigs Intraperitoneal % Lowering, 60 minutes: blood 60 minutes after injection; for In vivo Activity Guinea Pigs Intraperitoneal % Lowering, 120 minutes: blood 120 minutes after injection. The protocol:
(§1) An active inhibitor protects C2 from C1 and C4; (ii) Test Code 036 (C-Shunt inhibitor)--In this test human erythrocytes rendered fragile are lysed in autologous serum via the shunt pathway activated by cobra venom factor in the presence of appropriate dilutions of the test compound. Inhibition of the shunt pathway results in failure of lysis; (iii) Cap 50 Test--Here, appropriate amounts of the test compound are added to a pool of guinea pig serum in vitro, after which the complement level is determined in undiluted serum by the serum capillary tube assay of U.S. Pat. No. 3,876,376. The concentration of compound inhibiting 50% is reported; and (iv) Guinea Pig Intraperitoneal Test (GPIP)--Guinea pigs weighing about 300 g are dosed intraperitoneally (i.p.) with 200 mg/kg of the test compound dissolved in saline and adjusted to pH 7-8. Approximately 0.4 ml blood samples, taken by orbital sinus puncture 30 minutes and one hour after injections, are collected directly into centrifuge tubes; 5 ml blood samples, taken by decapitation 2 hours after inJection, are collected directly into diSPo® beakers. The samples were allowed to clot, centrifuged, and the resultant sera were assayed for complement activity using the capillary complement assay. Percent inhibition is calculated by comparison with simultaneous controls. The results of the GPIP appear in Table I together with results of Test Code 026, 036 and Cap 50.

The next test deals with activated human C1 (Homo sapiens, UniProt P09871). The test is described as follows: Test Code 026 (C1 inhibitor): protection of fluid phase human C2 from activated human C1 in the presence of C4. It is filed as biochemical. The note with it: serial twofold dilution assay; higher well number indicates higher activity.
In a further test the test system is shunt pathway. Description: Test Code 036 (C-Shunt inhibitor): lysis of fragile human erythrocytes in autologous serum via shunt pathway activated by cobra venom factor. The settings on record: serial twofold dilution assay; higher well number indicates higher activity. It is filed as cell-based. On the procedure:
as §1, with “The results of the GPIP appear in Table I together with results of Test Code 026, 036 and Cap 50.” left out

The test system of another test is complement system. The settings on record: literature report; cited from earlier work.
The test system of test [1] is hereditary angioneurotic edema. The settings on record: literature report; cited from earlier work.

Structures can show the parent of a compound that is named as a salt.

Take `O=C(Nc1cc2c(O)cc(S(=O)(=O)[O-])cc2cc1S(=O)(=O)[O-])Nc1cc2c(O)cc(S(=O)(=O)[O-])cc2cc1S(=O)(=O)[O-].[Na+].[Na+].[Na+].[Na+]` [3,3'-Ureylenebis(5-hydroxy-2,7-naphthalenedisulfonic acid), tetrasodium salt]: in the test on complement, the “In vivo Activity Guinea Pigs Intraperitoneal % Lowering, 30 minutes” value came out at 4%; the “In vivo Activity Guinea Pigs Intraperitoneal % Lowering, 60 minutes” value was found to be 1%; the “In vivo Activity Guinea Pigs Intraperitoneal % Lowering, 120 minutes” value came to 28%. Besides, at activated human C1, the “In vitro Activity C1 026 Wells” value was “+4 Wells”.

As for `O=C(Nc1cc(S(=O)(=O)[O-])c2cc([N+](=O)[O-])cc(S(=O)(=O)[O-])c2c1)Nc1cc(S(=O)(=O)[O-])c2cc([N+](=O)[O-])cc(S(=O)(=O)[O-])c2c1.[Na+].[Na+].[Na+].[Na+]` [3,3'-Ureylenebis(7-nitro-1,5-naphthalenedisulfonic acid), tetrasodium salt], the “In vitro Activity C1 026 Wells” value at activated human C1 is reported as “+3 Wells”.

On to `O=C(Nc1cc2ccc(S(=O)(=O)[O-])cc2cc1S(=O)(=O)[O-])Nc1cc2ccc(S(=O)(=O)[O-])cc2cc1S(=O)(=O)[O-].[Na+].[Na+].[Na+].[Na+]` [3,3'-Ureylenedi-2,7-naphthalenedisulfonic acid, tetrasodium salt], for which the “In vitro Activity C1 026 Wells” value on activated human C1 is “+3 Wells”.

With `O=C(Nc1cc(S(=O)(=O)O)cc2cc(S(=O)(=O)O)cc(OS(=O)(=O)c3ccccc3)c12)Nc1cc(S(=O)(=O)O)cc2cc(S(=O)(=O)O)cc(OS(=O)(=O)c3ccccc3)c12` [4,4'-Ureylenebis(5-hydroxy-2,7-naphthalenedisulfonic acid), tetrasodium salt dibenzenesulfonate], the “In vitro Activity C1 026 Wells” value at activated human C1 was “+3 Wells”.

On to `O=C(Nc1ccc(S(=O)(=O)[O-])c2ccc(S(=O)(=O)[O-])cc12)Nc1ccc(S(=O)(=O)[O-])c2ccc(S(=O)(=O)[O-])cc12.[Na+].[Na+].[Na+].[Na+]` [4,4'-Ureylenedi-1,6-naphthalenedisulfonic acid, tetrasodium salt], for which the “In vitro Activity C1 026 Wells” value at activated human C1 is given as “+3 Wells”.

For the compound `O=C(Nc1ccc(S(=O)(=O)[O-])c2ccccc12)Nc1ccc(S(=O)(=O)[O-])c2ccccc12.[Na+].[Na+]` [4,4'-Ureylenedi-1-naphthalenesulfonic acid, disodium salt], the “In vitro Activity C1 026 Wells” value at activated human C1 is given as “+2 Wells”.

With `O=C(Nc1cc(S(=O)(=O)[O-])cc2ccc(S(=O)(=O)[O-])cc12)Nc1cc(S(=O)(=O)[O-])cc2ccc(S(=O)(=O)[O-])cc12.[Na+].[Na+].[Na+].[Na+]` [4,4'-Ureylenedi-2,6-naphthalenedisulfonic acid, tetrasodium salt], at activated human C1, the “In vitro Activity C1 026 Wells” value was “+2 Wells”.

Turning to `O=C(Nc1cc(S(=O)(=O)[O-])cc2cc(S(=O)(=O)[O-])ccc12)Nc1cc(S(=O)(=O)[O-])cc2cc(S(=O)(=O)[O-])ccc12.[Na+].[Na+].[Na+].[Na+]` [4,4'-Ureylenedi-2,7-naphthalenedisulfonic acid, tetrasodium salt], on activated human C1, the “In vitro Activity C1 026 Wells” value was “+3 Wells”.

With `O=C(Nc1ccc2c(S(=O)(=O)[O-])cc(S(=O)(=O)[O-])cc2c1)Nc1ccc2c(S(=O)(=O)[O-])cc(S(=O)(=O)[O-])cc2c1.[Na+].[Na+].[Na+].[Na+]` [6,6'-Ureylenedi-1,3-naphthalenedisulfonic acid, tetrasodium salt], at activated human C1, the “In vitro Activity C1 026 Wells” value is given as “+3 Wells”.

On to `O=C(Nc1ccc2c(O)cc(S(=O)(=O)O)cc2c1)Nc1ccc2c(O)cc(S(=O)(=O)O)cc2c1` [6,6'-ureylenebis(1-hydroxy-3-naphthalenesulfonic acid)], for which the “In vitro Activity C1 026 Wells” value on activated human C1 is on record as “+1 Wells”.

Take `O=C(Nc1cc(S(=O)(=O)[O-])c2cc(S(=O)(=O)[O-])cc(S(=O)(=O)[O-])c2c1)Nc1cc(S(=O)(=O)[O-])c2cc(S(=O)(=O)[O-])cc(S(=O)(=O)[O-])c2c1.[Na+].[Na+].[Na+].[Na+].[Na+].[Na+]` [7,7'-Ureylenedi-1,3,5-naphthalenetrisulfonic acid, hexasodium salt]: the “In vitro Activity C-Shunt Inhibition 036 Wells” value in the test on shunt pathway is on record as “+1 Wells”. Further, at activated human C1, the “In vitro Activity C1 026 Wells” value is “+6 Wells”.

For `O=C(Nc1ccc2cc(S(=O)(=O)O)cc(O)c2c1)Nc1ccc2cc(S(=O)(=O)O)cc(O)c2c1` [7,7'-ureylenebis(1-hydroxy-3-naphthalenesulfonic acid)], the “In vitro Activity C1 026 Wells” value at activated human C1 is reported as “+2 Wells”.

With `O=S(=O)([O-])c1cc(NC(=S)Nc2cc(S(=O)(=O)[O-])cc3cc(S(=O)(=O)[O-])cc(S(=O)(=O)[O-])c23)c2c(S(=O)(=O)[O-])cc(S(=O)(=O)[O-])cc2c1.[Na+].[Na+].[Na+].[Na+].[Na+].[Na+]` [8,8'-(2-Thioureylene)di-1,3,6-naphthalenetrisulfonic acid, hexasodium salt], in the test on complement, the “In vivo Activity Guinea Pigs Intraperitoneal % Lowering, 30 minutes” value was 41%; the “In vivo Activity Guinea Pigs Intraperitoneal % Lowering, 60 minutes” value worked out at 20%; the “In vivo Activity Guinea Pigs Intraperitoneal % Lowering, 120 minutes” value was 42%. Further, the “In vitro Activity C1 026 Wells” value on activated human C1 was “+5 Wells”.

Take `O=C(Nc1ccc(S(=O)(=O)[O-])c2cc(S(=O)(=O)[O-])cc(S(=O)(=O)[O-])c12)Nc1ccc(S(=O)(=O)[O-])c2cc(S(=O)(=O)[O-])cc(S(=O)(=O)[O-])c12.[Na+].[Na+].[Na+].[Na+].[Na+].[Na+]` [8,8'-Ureylenedi-1,3,5-naphthalenetrisulfonic acid, hexasodium salt]: in the test with complement, the “In vivo Activity Guinea Pigs Intraperitoneal % Lowering, 30 minutes” value was determined as 92%; the “In vivo Activity Guinea Pigs Intraperitoneal % Lowering, 60 minutes” value came to 92%; the “In vivo Activity Guinea Pigs Intraperitoneal % Lowering, 120 minutes” value stood at 94%.

For the compound `O=C(Nc1cc(S(=O)(=O)[O-])cc2cc(S(=O)(=O)[O-])cc(S(=O)(=O)[O-])c12)Nc1cc(S(=O)(=O)[O-])cc2cc(S(=O)(=O)[O-])cc(S(=O)(=O)[O-])c12.[Na+].[Na+].[Na+].[Na+].[Na+].[Na+]` [8,8'-Ureylenedi-1,3,6-naphthalenetrisulfonic acid, hexasodium salt], in the test with complement, the “In vivo Activity Guinea Pigs Intraperitoneal % Lowering, 30 minutes” value is listed as 25%; the “In vivo Activity Guinea Pigs Intraperitoneal % Lowering, 60 minutes” value is given as 61%; the “In vivo Activity Guinea Pigs Intraperitoneal % Lowering, 120 minutes” value came out at 65%. Also, on activated human C1, the “In vitro Activity C1 026 Wells” value is “+5 Wells”.

For the compound `O=C(Nc1cc(S(=O)(=O)[O-])cc2cccc(S(=O)(=O)[O-])c12)Nc1cc(S(=O)(=O)[O-])cc2cccc(S(=O)(=O)[O-])c12.[Na+].[Na+].[Na+].[Na+]` [8,8'-Ureylenedi-1,6-naphthalenedisulfonic acid, tetrasodium salt], the “In vitro Activity C1 026 Wells” value on activated human C1 is on record as “+3 Wells”.

As to `Nc1ccc2cc(S(=O)(=O)[O-])cc(O)c2c1N=Nc1ccc(NC(=O)Nc2ccc(N=Nc3c(N)ccc4cc(S(=O)(=O)[O-])cc(O)c34)c(S(=O)(=O)[O-])c2)cc1S(=O)(=O)[O-].[Na+].[Na+].[Na+].[Na+]` [chlorazol fast pink, 3,3'-ureylenebis[6-(2-amino-8-hydroxy-6-sulfo-1-naphthylazo)benzenesulfonic acid], tetrasodium salt], the anti-complementary effect entry in the test with complement system is on record as “anti-complementary effect”.

Regarding `NCCCCCC(=O)O` [epsilon-aminocaproic acid], the “treatment of hereditary angioneurotic edema” value in test [1] is reported as “used with success”.

In the case of `NC[C@H]1CC[C@H](C(=O)O)CC1` [tranexamic acid], in test [1], the “treatment of hereditary angioneurotic edema” value is given as “used with success”.

For the compound heparin, the anti-complementary effect result in the test on complement system is listed as “anti-complementary effect”.
